Results published in patent US20080318791A1, “Use of Lactate Esters for Improving the Action of Agricultural Pesticides” (Bayer Cropscience Aktiengesellschaft, priority 2005, published 2008).

Experiments:
[1] = system: enzymatically isolated leaf cuticles of the top face of pear leaves; assay: Desorption test: influence of additives on tracer mobility in the cuticle (penetration enhancer / plasticizer effect)
Text: Additives which act as penetration enhancers at the level of the cuticle may be referred to below as accelerator additives (cf. Schönherr and Baur, 1994, Pesticide Science 42, 185-208). The feature of accelerator additives is their ability to penetrate from the aqueous spray liquor and/or from the spray covering into the cuticle and thereby to increase the mobility of the active compounds in the cuticle. Other additives such as polyethylene glycol, in contrast, only act on the spray covering (via the liquid phase) or act only as wetting agents, such as, for example, sodium dodecylsulphate.
This test determines the influence of additives on the penetration properties of other substances at the level of the cuticle. The mobility of a test substance in the cuticle is measured with and without an additive, by way of a desorption method. The method is published in detail in the literature (Baur et al., 1997, Pesticide Science, 51, 131-152) and only the principles and any deviations are described below.
As a test substance with the function of a tracer a selection was made here of a radiolabelled weak organic acid. Plant material used comprises the enzymatically isolated leaf cuticles of the top face of pear leaves from outdoor trees. […] This inner side readily takes up the small radioactive amount of the tracer in the undissociated acid form. […]

[2] = system: primary leaves of barley seedlings; assay: Retention test of spray liquor on poorly wettable leaf
Protocol: Retention is to be understood as meaning the adherence of spray mists to surfaces, for example plants or plant parts (leaves), after spray application. The retention depends both on the composition of the spray liquor and on the nature of the treated surface. The retention of a spray liquor (aqueous solution of the stated additive) was determined using a poorly wettable leaf in comparison to a reference surface with complete retention. The reported results were obtained using primary leaves of barley seedlings which had been cultivated in a greenhouse (18° C., 80% atmospheric humidity, 16 h of light). Individual cut leaves were subjected to standard treatment in a spray cabin using a track sprayer-flat-jet nozzle: XR 11002 VS; pressure: 3 bar; […]. Weight and leaf area were determined prior to the treatment, and the adhering spray coating was correspondingly determined gravimetrically and normalized to leaf area. A nonwoven-fabric paper cloth serves as reference surface for 100% retention. Per spray liquor variant, at least 5 individual leaves were treated, and the calculated retentions were then averaged. A test series where pure tap water as spray liquor was sprayed onto the barley seedling leaves was carried out as negative control (lowest retention).

SMILES: CCCCC(CC)COC(=O)C(C)O (centres unmarked) [2-Ethylhexyl lactate]
- Effectiveness as cuticle plasticizer (in words) ([1]; Table 1): very effective as a plasticizer
- Mean effect (ratio of desorption slopes with additive to without additive) ([1]; additive concentration 1 g/l, radiolabelled weak organic acid tracer): 45
- Effect on retention (in words) ([2]; 0.3 g/l): increased the retention considerably
- Retention ([2]; additive 0.3 g/l in water, 100% = nonwoven-fabric paper cloth): 60.6%
- Retention ([2]; additive 3 g/l + 0.2 g/l Pluronic PE 10500 emulsifier): 61%
